The results in this text go back to PMC4019635 (PLoS ONE, 2014).

The term IC50 denotes the point on the concentration scale where inhibition reaches its midpoint. High values mean weaker potency in that assay, low ones greater potency in that assay. Usually EC50 stands for the concentration that produces a half-maximal response. A high value points to weaker potency.

One experiment addresses RDLbdI/V (Drosophila melanogaster, UniProt P25123, I283V). The experiment can be described thus: cell-based.
In a further experiment the target is RDLbdI/VA^301S (Drosophila melanogaster, UniProt P25123, A301S/I283V). The experiment can be described thus: cell-based.
Sequence of RDLbdI/VA^301S (P25123 45-606 I283V/A301S): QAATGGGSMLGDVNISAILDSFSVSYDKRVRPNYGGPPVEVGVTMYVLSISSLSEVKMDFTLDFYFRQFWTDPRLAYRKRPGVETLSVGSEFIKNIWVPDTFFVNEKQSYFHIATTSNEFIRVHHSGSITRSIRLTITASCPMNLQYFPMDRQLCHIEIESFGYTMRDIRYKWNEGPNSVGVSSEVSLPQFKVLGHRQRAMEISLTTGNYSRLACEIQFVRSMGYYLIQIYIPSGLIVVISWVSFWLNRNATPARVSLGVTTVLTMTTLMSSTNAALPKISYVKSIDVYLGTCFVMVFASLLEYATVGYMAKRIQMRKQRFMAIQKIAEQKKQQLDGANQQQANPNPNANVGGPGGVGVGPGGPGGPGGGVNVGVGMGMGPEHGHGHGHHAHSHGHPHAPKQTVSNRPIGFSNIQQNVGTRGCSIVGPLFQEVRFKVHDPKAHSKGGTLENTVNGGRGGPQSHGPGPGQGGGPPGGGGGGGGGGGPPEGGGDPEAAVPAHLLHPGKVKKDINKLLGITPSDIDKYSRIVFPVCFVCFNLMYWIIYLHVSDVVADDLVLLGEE

Sequence of RDLbdI/V (P25123 45-606 I283V): as the sequence (P25123 45-606 I283V/A301S) above, with S257A counted along it

Take `CC[C@H](C)[C@H]1O[C@]2(CC[C@@H]1C)C[C@@H]1C[C@@H](C/C=C(\C)[C@@H](O[C@H]3C[C@H](OC)[C@@H](O[C@H]4C[C@H](OC)[C@@H](O)[C@H](C)O4)[C@H](C)O3)[C@@H](C)/C=C/C=C3\CO[C@@H]4[C@H](O)C(C)=C[C@@H](C(=O)O1)[C@]34O)O2` [IVM, ivermectin]: the IC50 against RDLbdI/V is 0.468 µM; at RDLbdI/VA^301S, 1.2 µM. Molecule `NC/C=C/C(=O)O` [TACA, trans-4-aminocrotonic acid] gave an EC50 at RDLbdI/V of 263 µM.

For the molecule `NCc1cc(=O)[nH]o1` [muscimol], on RDLbdI/V, the concentration for a half-maximal effect (EC50) was 95.5 µM. The same measure, in the same setting: to `NCCC(=O)O` [β-alanine] belongs 3090 µM.
